From patent publication US11779573B2, “Crystalline forms of compounds for preventing or treating sensory hair cell death” (University of Washington, priority 2017, dated 2023) come the findings set out here.

Some results are limits rather than exact numbers.

What all share (assay type): physicochemical
Data set [1] can be described thus: Dynamic vapor sorption (DVS), hygroscopicity and XRPD before/after. Conditions: for hygroscopicity / crystallinity / polymorphic form (XRPD) after DVS: mesylate; for crystallinity / polymorphic form (XRPD) after DVS: XRPD before and after DVS cycles of relative humidity. The method, then:
DVS studies were performed using a Surface Measurement Systems Ltd. DVS-1 No Video. The sample, typically 20-30 mg, was loaded into a balance pan and equilibrated at 0% relative humidity (RH). After the material was dried, the RH was increased at 10% per step for 1 hour per increment, ending at 95% RH. After completion of the sorption cycle, the sample was dried using the same method, and the cycle was repeated. The software used for data collection was DVSWin v3.01 No Video. Data analysis was performed using DVS Standard Analysis Suite v6.3.0 (Standard).

The nature of data set [2]: Solubility of Compound 1 in water, shake-flask method. The conditions noted are these: thermodynamic from solid, visually determined at 20° C., water added stepwise to 10 mg. The protocol:
Water was added stepwise to 10 mg of Compound 1, with 15 minutes in between additions, until complete dissolution was obtained.

Data set [3] is described as follows: Solubility in water of scaled-up salts of Compound B (salt screen). The protocol:
These slurry experiments were also performed at gram scale with 25 mg/mL Compound B in 20 mL ethyl acetate with 1 equivalent acid.

As a reminder, the solubility is the dissolved amount per volume that the medium holds. Turning to `CN1[C@H]2CC[C@@H]1c1c(sc(NC(=O)Nc3ccc(Cl)cc3)c1C(N)=O)C2.CS(=O)(=O)O` [Compound 1, (4R,7S)-2-(3-(4-chlorophenyl)ureido)-9-methyl-5,6,7,8-tetrahydro-4H-4,7-epiminocyclohepta[b]thiophene-3-carboxamide mesylate], the “total mass uptake in the first sorption cycle” value in data set [1] (DVS, 0% to 95% RH, first sorption cycle) is on record as 1.8%. Further, the “total mass uptake in the second cycle” value in data set [1] (DVS, 0% to 95% RH, second cycle) is given as 1.6%. Besides, the hygroscopicity entry in data set [1] (DVS, listed as mesylate salt) is “slightly hygroscopic at high humidity levels”; in data set [1] (DVS) it was “slightly hygroscopic”. Moreover, the “crystallinity / polymorphic form (XRPD) after DVS” value in data set [1] (listed as mesylate salt) is “remained unchanged”; in data set [1] it was “unchanged”. In addition, the solubility at 15 min in data set [2] is > 97 mg/mL. Further, the solubility in data set [3] was 97 to 970 mg/mL.
